Where two headings read alike, the source gives them in different places.
How the values were obtained:
[1] = molecular target: protein kinases (human kinome) (Homo sapiens, UniProt Q9H0K1); assay type: cell-based; details: experiment wp195
[2] = molecular target: protein kinases (human kinome) (Homo sapiens, UniProt P29597); assay type: cell-based; details: experiment wp195
[3] = molecular target: protein kinases (human kinome) (Homo sapiens, UniProt P42684); assay type: cell-based
[4] = molecular target: T1, protein kinases (human kinome) (Homo sapiens, UniProt P29323); assay type: cell-based
T1 sequence (P29323 19-1055): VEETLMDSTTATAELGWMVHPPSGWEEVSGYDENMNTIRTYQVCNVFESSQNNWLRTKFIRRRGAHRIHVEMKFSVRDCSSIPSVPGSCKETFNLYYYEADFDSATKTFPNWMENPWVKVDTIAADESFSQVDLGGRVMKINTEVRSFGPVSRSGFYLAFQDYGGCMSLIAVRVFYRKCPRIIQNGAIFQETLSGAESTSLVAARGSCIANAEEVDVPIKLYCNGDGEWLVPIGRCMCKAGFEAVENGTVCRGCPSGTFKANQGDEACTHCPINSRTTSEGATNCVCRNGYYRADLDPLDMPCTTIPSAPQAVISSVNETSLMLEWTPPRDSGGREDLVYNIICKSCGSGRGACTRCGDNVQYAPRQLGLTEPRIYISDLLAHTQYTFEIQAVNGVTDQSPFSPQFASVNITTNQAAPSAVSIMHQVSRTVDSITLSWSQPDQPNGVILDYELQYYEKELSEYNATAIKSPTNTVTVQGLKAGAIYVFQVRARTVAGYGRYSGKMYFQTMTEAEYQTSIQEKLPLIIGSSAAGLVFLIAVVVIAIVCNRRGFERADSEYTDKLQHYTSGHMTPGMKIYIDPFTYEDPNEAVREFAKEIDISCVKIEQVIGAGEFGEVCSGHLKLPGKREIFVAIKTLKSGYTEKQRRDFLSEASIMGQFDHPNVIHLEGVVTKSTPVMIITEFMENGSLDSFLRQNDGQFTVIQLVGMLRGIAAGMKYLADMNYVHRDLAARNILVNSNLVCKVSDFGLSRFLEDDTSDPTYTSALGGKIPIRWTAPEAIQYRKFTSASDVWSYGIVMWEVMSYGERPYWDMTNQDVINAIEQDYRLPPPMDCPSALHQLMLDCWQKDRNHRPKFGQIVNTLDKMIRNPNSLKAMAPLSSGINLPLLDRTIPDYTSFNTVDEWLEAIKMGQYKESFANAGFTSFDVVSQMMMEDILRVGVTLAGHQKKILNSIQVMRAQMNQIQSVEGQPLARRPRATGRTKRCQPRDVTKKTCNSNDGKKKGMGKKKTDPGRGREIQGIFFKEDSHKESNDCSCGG

[5] = test system: protein kinases in MOLT-4 cells; assay: Whole cell quantitative proteomics in MOLT-4 cells; details: MOLT-4, 1 μM, 5 h
Experimental: (§1) Whole cell multiplexed quantitative proteomics was employed to measure changes in abundance of the proteome in response to treatment with each of the kinase degrader molecules relative to DMSO (Table 1, Appendix I).
(§2) Cells were treated with DMSO (biological triplicate) or degrader at indicated dose and time and cells were harvested by centrifugation. […] Precipitated protein was resuspended in 4 M Urea, 50 mM HEPES pH 7.4, followed by dilution to 1 M urea with the addition of 200 mM EPPS, pH 8. Proteins were first digested with LysC (1:50: enzyme:protein) for 12 hours at room temperature. The LysC digestion was diluted to 0.5 M Urea with 200 mM EPPS pH 8 followed by digestion with trypsin (1:50; enzyme:protein) for 6 hours at 37° C. Tandem mass tag (TMT) reagents (Thermo Fisher Scientific) were dissolved in anhydrous acetonitrile (ACN) according to manufacturer's instructions. […] The 10, 11, or 16-plex labeling reactions were performed for 1.5 hours at room temperature and the reaction quenched by the addition of hydroxylamine to a final concentration of 0.3% for 15 minutes at room temperature. The sample channels were combined at a 1:1 ratio, desalted using C18 solid phase extraction cartridges (Waters®) and analyzed by LC-MS for channel ratio comparison. Samples were then combined using the adjusted volumes determined in the channel ratio analysis and dried down in a speed vacuum. The combined sample was then resuspended in 1% formic acid, and acidified (pH 2-3) before being subjected to desalting with C18 SPE (Sep-Pak®, Waters®). Samples were then offline fractionated into 96 fractions by high pH reverse-phase HPLC (Agilent® LC1260) through an aeris peptide xb-c18 column (Phenomenex®) with mobile phase A containing 5% acetonitrile and 10 mM NH4HCO3 in LC-MS grade H2O, and mobile phase B containing 90% acetonitrile and 10 mM NH4HCO3 in LC-MS grade H2O (both pH 8.0). The 96 resulting fractions were then pooled in a non-continuous manner into 24 fractions and desalted using C18 solid phase extraction plates (SOLA®, Thermo Fisher Scientific) followed by subsequent mass spectrometry analysis.
(§3) Data were collected using an Orbitrap Fusion™ Lumos™ mass spectrometer (Thermo Fisher Scientific, San Jose, CA, USA) coupled with a Proxeon EASY-nLC™ 1200 LC pump (Thermo Fisher Scientific) or an Orbitrap Eclipse™ Tribrid™ mass spectrometer (Thermo Fisher Scientific, San Jose, CA, USA) coupled with an UltiMate™ 3000 RSLCnano System. Peptides were separated on an EasySpray™ ES803a/ES803a.rev2 75 μm inner diameter microcapillary column (ThermoFisher Scientific).
(§4) Data dependent MS2 spectra were acquired in the ion trap with a normalized collision energy (NCE) set at 35%, AGC target set to 1.8×10^4 and a maximum injection time of 120 ms. MS3 scans were acquired in the Orbitrap with HCD collision energy set to 55%. AGC target set to 2×10^5, maximum injection time of 150 ms, resolution at 50,000 and with a maximum synchronous precursor selection (SPS) precursors set to 10.
(§5) Proteome Discoverer™ 2.1, 2.2 or 2.4 (Thermo Fisher Scientific) was used for .RAW file processing and controlling peptide and protein level false discovery rates, assembling proteins from peptides, and protein quantification from peptides.

[6] = molecular target: protein kinases in MOLT-4 cells (Homo sapiens, UniProt P41240); assay: Whole cell quantitative proteomics in MOLT-4 cells; details: compared with the library; MOLT-4, 1 μM, 5 h
Experimental: as §1, §2, §3, §4, §5

[7] = test system: protein kinases (human kinome); assay type: cell-based; details: for kinases the bifunctional compound degrades: as stated for the structure in the embodiments; for Kinase hits: kinases significantly downregulated vs DMSO (fold change cutoff −1.25, P-value<0.01), ≤8 h, 0.1-5 μM degrader, 7 cell lines; for Total no. kinase hits: number of degraded kinases per library compound
MM1.S cells = assay: CellTiter-Glo viability assay; assay type: cell-based, H. sapiens; details: MM.1S multiple myeloma cell line, 72 hours
Experimental: MM1.S (purchased from ATCC) was seeded in a 96-well microplate at 10,000 cells per […] well in RPMI-1(40 media supplemented with 10% FBS and incubated with compounds (final DMSO concentration at 0.1%). Relative cell viability was measured 72 hours after drug addition using CellTiter-Glo® (Promega) according to the manufacturer's protocol. Each analysis was performed in biological triplicate.

[8] = molecular target: protein kinases in MOLT-4 cells (Homo sapiens, UniProt O14965); assay: Whole cell quantitative proteomics in MOLT-4 cells; details: MOLT-4, 1 μM, 5 h; validated by immunoblotting
Experimental: as §1, §2, §3, §4, §5

[9] = molecular target: protein kinases (human kinome) (Homo sapiens, UniProt P48736); assay type: cell-based
[10] = molecular target: protein kinases (human kinome) (Homo sapiens, UniProt Q96BR1); assay type: cell-based
[11] = molecular target: protein kinases (human kinome) (Homo sapiens, UniProt P49840); assay type: cell-based; details: GSK3A P49840; experiment wp068
[12] = molecular target: T2, protein kinases (human kinome) (Homo sapiens, UniProt Q9UQ88); assay type: cell-based
T2 sequence (Q9UQ88 1-783): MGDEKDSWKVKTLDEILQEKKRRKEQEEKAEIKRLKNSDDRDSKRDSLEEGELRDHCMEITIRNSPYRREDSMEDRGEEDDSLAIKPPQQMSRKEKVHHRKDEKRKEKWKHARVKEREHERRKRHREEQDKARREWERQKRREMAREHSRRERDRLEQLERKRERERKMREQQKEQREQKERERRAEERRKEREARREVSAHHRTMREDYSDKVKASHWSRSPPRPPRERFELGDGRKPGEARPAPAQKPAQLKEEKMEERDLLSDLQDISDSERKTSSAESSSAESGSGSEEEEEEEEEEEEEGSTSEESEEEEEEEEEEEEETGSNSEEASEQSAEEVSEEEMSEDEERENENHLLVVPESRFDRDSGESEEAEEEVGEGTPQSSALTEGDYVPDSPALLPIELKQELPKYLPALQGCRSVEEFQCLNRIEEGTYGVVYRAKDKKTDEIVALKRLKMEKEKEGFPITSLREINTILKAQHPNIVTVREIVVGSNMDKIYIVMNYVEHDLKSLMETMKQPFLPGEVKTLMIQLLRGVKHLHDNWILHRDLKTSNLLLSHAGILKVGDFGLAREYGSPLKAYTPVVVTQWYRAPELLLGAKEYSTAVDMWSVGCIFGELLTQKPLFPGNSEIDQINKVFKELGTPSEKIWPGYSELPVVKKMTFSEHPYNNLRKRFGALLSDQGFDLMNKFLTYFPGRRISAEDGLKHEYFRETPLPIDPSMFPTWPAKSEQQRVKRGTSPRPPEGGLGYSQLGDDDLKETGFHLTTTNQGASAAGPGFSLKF

[13] = molecular target: extended human kinome (kinase-like proteins) (Homo sapiens, UniProt Q16875); assay: Whole cell quantitative proteomics: extended kinome hits; details: Accession Q16875; experiment wp068
[14] = Experiment wp068, direction of change down
[15] = CLK1 P49759-3, experiment wp068

protein kinases (human kinome) (Homo sapiens, UniProt P49840), sequence (P49840 whole entry): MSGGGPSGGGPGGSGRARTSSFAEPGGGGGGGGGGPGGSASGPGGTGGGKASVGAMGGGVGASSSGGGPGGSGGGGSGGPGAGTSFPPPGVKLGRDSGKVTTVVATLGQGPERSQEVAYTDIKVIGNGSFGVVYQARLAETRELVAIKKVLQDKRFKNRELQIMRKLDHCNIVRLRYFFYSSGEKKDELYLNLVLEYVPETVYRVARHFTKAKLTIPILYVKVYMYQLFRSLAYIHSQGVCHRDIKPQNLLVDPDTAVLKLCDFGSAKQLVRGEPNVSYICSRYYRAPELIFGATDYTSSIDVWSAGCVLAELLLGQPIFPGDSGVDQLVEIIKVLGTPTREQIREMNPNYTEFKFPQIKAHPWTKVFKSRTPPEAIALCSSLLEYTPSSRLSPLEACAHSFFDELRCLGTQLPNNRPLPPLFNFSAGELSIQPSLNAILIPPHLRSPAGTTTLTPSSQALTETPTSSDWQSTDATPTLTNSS
protein kinases (human kinome) (Homo sapiens, UniProt P48736), sequence (P48736 whole entry): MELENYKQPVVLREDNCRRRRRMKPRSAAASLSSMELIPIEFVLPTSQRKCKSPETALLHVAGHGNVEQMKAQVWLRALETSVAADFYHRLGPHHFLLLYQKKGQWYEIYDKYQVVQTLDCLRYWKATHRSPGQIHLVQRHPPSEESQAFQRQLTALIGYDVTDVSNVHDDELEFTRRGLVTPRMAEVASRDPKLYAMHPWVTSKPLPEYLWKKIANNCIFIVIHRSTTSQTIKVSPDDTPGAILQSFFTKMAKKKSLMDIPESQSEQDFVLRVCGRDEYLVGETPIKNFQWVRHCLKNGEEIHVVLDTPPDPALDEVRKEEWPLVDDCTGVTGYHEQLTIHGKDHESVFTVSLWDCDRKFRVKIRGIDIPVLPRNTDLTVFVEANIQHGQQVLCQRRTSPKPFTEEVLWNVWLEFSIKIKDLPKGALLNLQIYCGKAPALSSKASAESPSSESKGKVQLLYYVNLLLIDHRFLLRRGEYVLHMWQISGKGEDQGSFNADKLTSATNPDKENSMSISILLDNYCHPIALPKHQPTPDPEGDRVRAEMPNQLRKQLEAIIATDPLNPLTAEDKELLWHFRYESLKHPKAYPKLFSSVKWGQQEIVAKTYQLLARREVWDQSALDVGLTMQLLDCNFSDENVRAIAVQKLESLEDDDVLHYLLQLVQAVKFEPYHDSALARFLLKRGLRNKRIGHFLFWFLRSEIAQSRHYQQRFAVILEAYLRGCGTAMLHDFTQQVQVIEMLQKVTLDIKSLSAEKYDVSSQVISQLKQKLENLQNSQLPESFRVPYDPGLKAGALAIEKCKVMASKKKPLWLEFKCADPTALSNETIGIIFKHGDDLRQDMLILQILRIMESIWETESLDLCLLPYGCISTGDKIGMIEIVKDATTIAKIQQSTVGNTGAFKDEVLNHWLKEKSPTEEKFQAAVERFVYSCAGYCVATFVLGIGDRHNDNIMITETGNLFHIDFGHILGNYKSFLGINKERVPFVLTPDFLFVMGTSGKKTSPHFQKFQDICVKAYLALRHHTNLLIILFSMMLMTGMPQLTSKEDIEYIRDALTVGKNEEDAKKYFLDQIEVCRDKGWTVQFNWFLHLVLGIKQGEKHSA
protein kinases (human kinome) (Homo sapiens, UniProt P29597), sequence (P29597 whole entry): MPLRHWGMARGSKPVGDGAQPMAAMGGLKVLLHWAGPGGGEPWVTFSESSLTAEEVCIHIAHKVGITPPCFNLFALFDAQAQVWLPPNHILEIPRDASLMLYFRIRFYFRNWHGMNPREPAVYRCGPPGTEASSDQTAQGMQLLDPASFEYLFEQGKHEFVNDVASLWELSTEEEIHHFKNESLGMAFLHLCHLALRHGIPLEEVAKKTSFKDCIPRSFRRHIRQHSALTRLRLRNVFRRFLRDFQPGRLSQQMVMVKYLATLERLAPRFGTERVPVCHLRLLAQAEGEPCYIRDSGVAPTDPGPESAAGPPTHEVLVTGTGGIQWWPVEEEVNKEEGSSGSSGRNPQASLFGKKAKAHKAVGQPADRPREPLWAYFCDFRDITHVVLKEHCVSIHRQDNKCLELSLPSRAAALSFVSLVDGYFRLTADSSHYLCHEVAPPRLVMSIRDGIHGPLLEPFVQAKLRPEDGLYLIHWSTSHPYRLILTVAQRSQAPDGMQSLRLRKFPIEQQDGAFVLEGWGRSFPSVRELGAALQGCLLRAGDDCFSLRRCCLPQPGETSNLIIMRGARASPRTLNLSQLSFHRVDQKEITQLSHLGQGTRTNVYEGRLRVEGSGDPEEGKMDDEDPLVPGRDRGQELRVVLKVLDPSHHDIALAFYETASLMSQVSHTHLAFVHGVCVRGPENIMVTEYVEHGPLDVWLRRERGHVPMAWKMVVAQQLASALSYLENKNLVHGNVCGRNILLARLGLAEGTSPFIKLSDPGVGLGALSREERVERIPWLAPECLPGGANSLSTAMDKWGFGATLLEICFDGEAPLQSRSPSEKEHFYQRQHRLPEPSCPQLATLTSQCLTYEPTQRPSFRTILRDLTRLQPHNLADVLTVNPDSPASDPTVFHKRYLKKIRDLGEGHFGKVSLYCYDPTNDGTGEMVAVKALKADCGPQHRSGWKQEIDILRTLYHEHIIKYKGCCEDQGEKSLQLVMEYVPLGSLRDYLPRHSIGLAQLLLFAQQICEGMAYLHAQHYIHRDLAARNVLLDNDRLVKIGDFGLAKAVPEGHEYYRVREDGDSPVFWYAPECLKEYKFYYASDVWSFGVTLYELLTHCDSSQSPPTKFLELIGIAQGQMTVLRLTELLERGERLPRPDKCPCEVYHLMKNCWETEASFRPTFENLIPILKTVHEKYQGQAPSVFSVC
protein kinases (human kinome) (Homo sapiens, UniProt P42684), sequence (P42684 whole entry): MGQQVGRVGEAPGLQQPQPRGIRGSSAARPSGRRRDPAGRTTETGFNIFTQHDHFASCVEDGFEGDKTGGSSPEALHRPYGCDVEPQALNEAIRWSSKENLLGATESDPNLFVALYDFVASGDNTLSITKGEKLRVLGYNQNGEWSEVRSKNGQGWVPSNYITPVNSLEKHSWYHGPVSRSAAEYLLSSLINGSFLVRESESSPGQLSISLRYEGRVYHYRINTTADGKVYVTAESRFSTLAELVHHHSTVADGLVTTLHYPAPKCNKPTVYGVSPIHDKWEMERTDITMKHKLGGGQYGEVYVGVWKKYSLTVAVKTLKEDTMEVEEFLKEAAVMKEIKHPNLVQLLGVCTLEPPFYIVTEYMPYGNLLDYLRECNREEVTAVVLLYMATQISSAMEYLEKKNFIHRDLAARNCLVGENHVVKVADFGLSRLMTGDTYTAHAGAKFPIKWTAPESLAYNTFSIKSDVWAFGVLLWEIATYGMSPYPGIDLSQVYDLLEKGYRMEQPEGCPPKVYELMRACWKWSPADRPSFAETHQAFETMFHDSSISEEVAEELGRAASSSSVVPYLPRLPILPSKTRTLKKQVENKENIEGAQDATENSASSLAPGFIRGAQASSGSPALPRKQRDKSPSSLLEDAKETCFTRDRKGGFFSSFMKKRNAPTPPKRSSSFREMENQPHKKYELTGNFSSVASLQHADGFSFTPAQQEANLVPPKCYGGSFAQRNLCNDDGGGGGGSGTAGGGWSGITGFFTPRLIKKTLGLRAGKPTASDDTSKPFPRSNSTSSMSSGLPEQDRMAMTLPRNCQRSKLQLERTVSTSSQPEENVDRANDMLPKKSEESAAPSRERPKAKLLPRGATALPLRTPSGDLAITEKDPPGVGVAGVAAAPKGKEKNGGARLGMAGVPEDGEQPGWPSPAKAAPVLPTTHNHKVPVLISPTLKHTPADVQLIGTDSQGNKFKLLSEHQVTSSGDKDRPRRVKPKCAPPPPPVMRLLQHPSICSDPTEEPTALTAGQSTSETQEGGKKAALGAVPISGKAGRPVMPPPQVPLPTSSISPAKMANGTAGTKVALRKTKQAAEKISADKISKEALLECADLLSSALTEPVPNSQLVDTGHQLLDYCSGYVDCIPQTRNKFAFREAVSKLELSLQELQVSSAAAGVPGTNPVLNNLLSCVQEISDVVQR
protein kinases (human kinome) (Homo sapiens, UniProt Q9H0K1), sequence (Q9H0K1 whole entry): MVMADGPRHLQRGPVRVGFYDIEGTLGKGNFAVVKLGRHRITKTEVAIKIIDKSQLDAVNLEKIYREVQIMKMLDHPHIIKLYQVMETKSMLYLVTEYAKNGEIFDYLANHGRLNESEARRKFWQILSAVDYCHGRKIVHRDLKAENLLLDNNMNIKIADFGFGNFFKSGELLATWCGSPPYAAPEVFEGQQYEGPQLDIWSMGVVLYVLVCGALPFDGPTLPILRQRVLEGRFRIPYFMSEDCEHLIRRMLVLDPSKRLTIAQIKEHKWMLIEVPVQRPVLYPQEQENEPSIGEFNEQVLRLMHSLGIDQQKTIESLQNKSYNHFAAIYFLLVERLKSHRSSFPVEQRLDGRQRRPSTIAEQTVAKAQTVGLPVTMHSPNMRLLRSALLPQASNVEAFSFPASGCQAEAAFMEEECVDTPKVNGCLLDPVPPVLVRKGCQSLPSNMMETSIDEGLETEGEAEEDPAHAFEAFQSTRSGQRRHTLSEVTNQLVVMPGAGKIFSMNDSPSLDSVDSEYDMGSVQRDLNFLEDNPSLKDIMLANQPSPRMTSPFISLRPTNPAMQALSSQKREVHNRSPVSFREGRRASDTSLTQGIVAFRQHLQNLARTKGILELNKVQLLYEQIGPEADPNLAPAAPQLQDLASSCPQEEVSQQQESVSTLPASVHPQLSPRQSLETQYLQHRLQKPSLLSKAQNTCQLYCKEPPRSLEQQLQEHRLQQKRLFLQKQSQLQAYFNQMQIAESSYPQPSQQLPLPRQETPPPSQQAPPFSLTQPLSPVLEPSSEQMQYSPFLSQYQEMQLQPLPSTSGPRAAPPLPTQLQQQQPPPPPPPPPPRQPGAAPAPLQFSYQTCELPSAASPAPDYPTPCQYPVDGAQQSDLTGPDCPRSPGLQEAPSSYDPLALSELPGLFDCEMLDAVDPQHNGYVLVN

Q: Which “logFC of SIK2” value ([1]; Accession Q9H0K1) does the source give for `Cc1ncsc1-c1ccc([C@H](C)NC(=O)[C@@H]2C[C@@H](O)CN2C(=O)[C@@H](NC(=O)CCCCCCc2ccc(Nc3ncc4c(n3)-c3ccccc3NC(=O)N4)cc2)C(C)(C)C)cc1` [JWG.148] here?
A: The value was −0.455.

Q: And the “logFC SIK2 (Q9H0K1)” value ([1]; direction of change down)?
A: The value was −0.455.

Q: And the “logFC TYK2 (P29597)” value ([2]; direction of change down)?
A: The value was −0.5187.

Q: And the “logFC TYK2” value ([2]; protein TYK2 (P29597), down)?
A: Its value is −0.5187.

Q: What about the logFC ([3]; ABL2 (P42684) protein abundance, degrader vs DMSO, down) of the same compound?
A: The logFC was −0.516.

Q: And the “logFC ABL2 (P42684)” value ([3]; Experiment wp195)?
A: Its value is −0.516.

Q: What about the logFC ([4]; EPHB2 (P29323), experiment wp195) of the same compound?
A: The logFC was −0.3596.

Q: And the “logFC of EPHB2 (P29323)” value ([4]; Experiment wp195)?
A: Its value is −0.3596.

Q: Which results are given for `Cc1nc(Nc2ncc(C(=O)Nc3c(C)cccc3Cl)s2)cc(N2CCN(CC(=O)NCCCCNC(=O)COc3cccc4c3C(=O)N(C3CCC(=O)NC3=O)C4=O)CC2)n1` (stereo not drawn) [DB-3-291, N-(2-chloro-6-methylphenyl)-2-((6-(4-(2-((4-(2-((2-(2,6-dioxopiperidin-3-yl)-1,3-dioxoisoindolin-4-yl)oxy)acetamido)butyl)amino)-2-oxoethyl)piperazin-1-yl)-2-methylpyrimidin-4-yl)amino)thiazole-5-carboxamide]?
A: selectivity among CSK degraders [5]: greatest selectivity; degradation of CSK [6]: strongest degradation of CSK; kinases the bifunctional compound degrades [7]: ABL2, BLK, CSK, and WEE1; Kinase hits [7]: ABL2, BLK, CSK, WEE1; Total no. kinase hits [7]: 4

Q: With `COc1cc(Nc2ncc3c(n2)-c2ccc(Cl)cc2C(c2c(F)cccc2OC)=NC3)ccc1C(=O)NCCCOCCOCCOCCCNC(=O)COc1cccc2c1C(=O)N(C1CCC(=O)NC1=O)C2=O` (stereo not drawn) [dAURK-4, -((9-chloro-7-(2-fluoro-6-methoxyphenyl)-5H-benzo[c]pyrimido[4,5-e]azepin-2-yl)amino)-N-(1-((2-(2,6-dioxopiperidin-3-yl)-1,3-dioxoisoindolin-4-yl)oxy)-2-oxo-7,10,13-trioxa-3-2174 azahexadecan-16-yl)-2-methoxybenzamide] as the compound, how does the antiproliferative effects (MM1.S cells) read?
A: The antiproliferative effects was “superior antiproliferative effects over parental inhibitor alisertib”.

Q: What about the “degradation of AURKA” value [8] of the same compound?
A: Its value is “potent and selective degradation”.

Q: What about the “kinases the bifunctional compound degrades” value [7] of the same compound?
A: The value was “AURKA and AURKB”.

Q: What about the Kinase hits [7] of the same compound?
A: Its Kinase hits is “AURKA, AURKB”.

Q: And the “Total no. kinase hits” value [7]?
A: The value was 2.

Q: With `O=C1CCC(N2C(=O)c3cccc(NCCOCCOCCOCCOCCC(=O)Nc4cccc(CN5CCC(NC(=O)c6[nH]ncc6NC(=O)c6c(Cl)cccc6Cl)CC5)c4)c3C2=O)C(=O)N1` (stereo not drawn) [FMF.04.147.1] as the compound, how does the “logFC PIK3CG (P48736)” value [9, 14] read?
A: The value was −0.3581.

Q: And the logFC ([9]; PIK3CG (P48736), experiment wp068)?
A: Its logFC is −0.3581.

Q: What about the “logFC GSK3B” value ([7]; Accession P49841-2, experiment wp068, direction down) of the same compound?
A: The value was −0.6218.

Q: What about the logFC ([7]; CDK9 (P50750-2) protein abundance, degrader vs DMSO, down) of the same compound?
A: Its logFC is −0.9142.

Q: What about the logFC [7, 15] of the same compound?
A: Its logFC is −0.6462.

Q: What about the “logFC CLK1” value [7, 15] of the same compound?
A: The value was −0.6462.

Q: What about the “logFC CDK9 (P50750-2)” value ([7]; Experiment wp068) of the same compound?
A: The value was −0.9142.

Q: What about the “logFC GSK3B” value ([7]; GSK3B P49841-2, experiment wp068) of the same compound?
A: Its value is −0.6218.

Q: What about the “logFC SGK3 (Q96BR1-1)” value [10, 14] of the same compound?
A: The value was −0.3389.

Q: And the logFC ([10]; SGK3 (Q96BR1-1), experiment wp068)?
A: Its logFC is −0.3389.

Q: And the logFC [11]?
A: Its logFC is −0.5346.

Q: What about the “logFC GSK3A” value [11] of the same compound?
A: The value was −0.5346.

Q: And the logFC ([12]; CDK11A (Q9UQ88-1), experiment wp068)?
A: The logFC was −0.7386.

Q: What about the “logFC of CDK11A (Q9UQ88-1)” value ([12]; Experiment wp068) of the same compound?
A: Its value is −0.7386.

Q: And the “logFC PFKFB3” value [13]?
A: The value was −0.4462.

— patent US20240269139A1, “COMPOUNDS FOR TARGETED PROTEIN DEGRADATION OF KINASES” (DANA-FARBER CANCER INSTITUTE, INC., priority 2020, published 2024)
